Reference: ChEMBL document CHEMBL4265894, “Developing potential Helicobacter pylori urease inhibitors from novel oxoindoline derivatives: Synthesis, biological evaluation and in silico study” (Bioorg Med Chem Lett, 2018)
Converted amounts (≈) assume the structure as drawn.

Columns and labels:
[1] = test system: Helicobacter pylori; assay: Antibacterial activity against Helicobacter pylori after 48 hrs; type: functional
[2] = target: Urease (Helicobacter pylori, UniProt Q0PXQ5); assay: Inhibition of Helicobacter pylori urease after 50 mins by indophenol method
Urease, sequence (Q0PXQ5 whole entry): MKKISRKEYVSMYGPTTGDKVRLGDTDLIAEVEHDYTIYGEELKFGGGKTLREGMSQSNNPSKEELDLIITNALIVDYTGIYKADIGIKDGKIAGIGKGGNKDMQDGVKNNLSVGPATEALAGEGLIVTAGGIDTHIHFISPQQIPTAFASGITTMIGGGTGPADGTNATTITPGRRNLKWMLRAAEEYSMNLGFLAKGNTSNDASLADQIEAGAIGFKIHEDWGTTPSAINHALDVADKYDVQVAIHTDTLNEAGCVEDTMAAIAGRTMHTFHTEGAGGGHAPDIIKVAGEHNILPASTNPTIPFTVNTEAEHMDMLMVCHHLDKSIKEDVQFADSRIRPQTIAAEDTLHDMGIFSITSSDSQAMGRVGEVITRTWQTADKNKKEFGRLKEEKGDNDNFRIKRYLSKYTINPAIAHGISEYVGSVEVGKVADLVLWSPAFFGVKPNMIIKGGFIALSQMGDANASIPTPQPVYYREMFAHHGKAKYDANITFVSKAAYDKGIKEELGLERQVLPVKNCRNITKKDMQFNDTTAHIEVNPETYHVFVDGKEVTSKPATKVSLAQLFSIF

[3] = Cytotoxicity against human LO2 cells after 24 hrs by MTT assay; type: cell-based, L02
[4] = Cytotoxicity against HEK293T cells after 24 hrs by MTT assay; type: cell-based, HEK-293T; conditions: human

CC(C)=CCN1C(=O)/C(=N/NC(=O)c2ccc(C(C)C)cc2)c2ccccc21
MIC [1]: 27.5 µM (≈ 10.3 µg/mL) | IC50 [2]: 14.9 µM

CC(C)=CCN1C(=O)/C(=N/NC(=O)c2cccc(Br)c2)c2ccccc21
MIC [1]: 50.5 µM (≈ 20.8 µg/mL) | IC50 [2]: 27.6 µM

COc1cc(OC)cc(C(=O)N/N=C2/C(=O)N(CC=C(C)C)c3ccccc32)c1
MIC [1]: 1.96 µM (≈ 0.771 µg/mL) | GI50 at 24 h [3]: 188 µM | GI50 at 24 h [4]: 176 µM | IC50 [2]: 1.35 µM

CC(C)=CCN1C(=O)/C(=N/NC(=O)c2cc(C)cc(C)c2)c2ccccc21
MIC [1]: 6.75 µM (≈ 2.44 µg/mL) | IC50 [2]: 4.38 µM

CC(=O)NO [ACETOHYDROXAMIC ACID]
IC50 [2]: 17.2 µM

CC(C)=CCN1C(=O)/C(=N/Nc2ccccc2)c2ccccc21
MIC [1]: > 200 µM | GI50 at 24 h [3]: > 200 µM | GI50 at 24 h [4]: > 200 µM | IC50 [2]: > 300 µM

CC(C)=CCN1C(=O)/C(=N/NC(=O)c2ccc(C(F)(F)F)cc2)c2ccccc21
MIC [1]: 83.9 µM (≈ 33.7 µg/mL) | IC50 [2]: 44.1 µM

COc1ccc(C(=O)N/N=C2/C(=O)N(CC=C(C)C)c3ccccc32)cc1OC
MIC [1]: 0.48 µM (≈ 0.189 µg/mL) | GI50 at 24 h [3]: 178 µM | GI50 at 24 h [4]: 184 µM | IC50 [2]: 0.71 µM

CC(C)=CCN1C(=O)/C(=N/NC(=O)c2cccc(Cl)c2)c2ccccc21
MIC [1]: 72.5 µM (≈ 26.7 µg/mL) | IC50 [2]: 38.1 µM

Cc1ncc([N+](=O)[O-])n1CCO [METRONIDAZOLE]
MIC [1]: 31.3 µM (≈ 5.36 µg/mL)

CC(C)=CCN1C(=O)/C(=N/NC(=O)c2ccc(Br)cc2)c2ccccc21
MIC [1]: 137 µM (≈ 56.5 µg/mL) | IC50 [2]: 83.9 µM

COc1ccc(C(=O)N/N=C2/C(=O)N(CC=C(C)C)c3ccccc32)cc1F
MIC [1]: 3.94 µM (≈ 1.5 µg/mL) | GI50 at 24 h [3]: > 200 µM | GI50 at 24 h [4]: 169 µM | IC50 [2]: 3.82 µM

COc1ccccc1C(=O)N/N=C1/C(=O)N(CC=C(C)C)c2ccccc21
MIC [1]: 19.5 µM (≈ 7.09 µg/mL) | IC50 [2]: 11.7 µM

CC(C)=CCN1C(=O)/C(=N/NC(=O)c2ccc(C(C)(C)C)cc2)c2ccccc21
MIC [1]: 30.8 µM (≈ 12 µg/mL) | IC50 [2]: 19.5 µM

CC(C)=CCN1C(=O)/C(=N/NC(=O)c2cccc(C(F)(F)F)c2)c2ccccc21
MIC [1]: 108 µM (≈ 43.3 µg/mL) | IC50 [2]: 65.8 µM

CC(C)=CCN1C(=O)/C(=N/NC(=O)c2ccccc2)c2ccccc21
MIC [1]: 171 µM (≈ 57 µg/mL) | IC50 [2]: 129 µM

COc1ccc(C(=O)N/N=C2/C(=O)N(CC=C(C)C)c3ccccc32)cc1
MIC [1]: 10.3 µM (≈ 3.74 µg/mL) | IC50 [2]: 6.99 µM

CC(C)=CCN1C(=O)/C(=N/NC(=O)c2ccc(F)cc2)c2ccccc21
MIC [1]: > 200 µM | GI50 at 24 h [3]: > 200 µM | GI50 at 24 h [4]: 195 µM | IC50 [2]: 154 µM

CC(C)=CCN1C(=O)/C(=N/NC(=O)c2ccc(C)cc2)c2ccccc21
MIC [1]: 58.1 µM (≈ 20.2 µg/mL) | IC50 [2]: 29.9 µM

CC(C)=CCN1C(=O)/C(=N/NC(=O)c2ccc(Oc3ccccc3)cc2)c2ccccc21
MIC [1]: 41.8 µM (≈ 17.8 µg/mL) | IC50 [2]: 22.7 µM

COc1cccc(C(=O)N/N=C2/C(=O)N(CC=C(C)C)c3ccccc32)c1
MIC [1]: 15.2 µM (≈ 5.52 µg/mL) | IC50 [2]: 8.21 µM

CC(C)=CCN1C(=O)/C(=N/NC(=O)c2ccc(Cl)cc2)c2ccccc21
MIC [1]: 185 µM (≈ 68 µg/mL) | GI50 at 24 h [3]: > 200 µM | GI50 at 24 h [4]: > 200 µM | IC50 [2]: 143 µM
